Like-named read-outs stand apart in the source and are kept apart here.
Key:
[1] = target: MCL-1/Bim interaction (recombinant human MCL-1 protein, residues 171-327; biotinylated human Bim peptide, residues 51-76) (Homo sapiens (Human), UniProt Q07820); assay: MCL-1/Bim Binding AlphaLISA Assay; conditions: 0.0625 nM 6xHis-Mcl-1 (171-327), 0.0625 nM biotinylated-Bim peptide
Method in brief: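 Compounds first sat 1 h with MCL-1 (171-327, 0.0625 nM), followed by 2 h with biotin-Bim 51-76 (0.0625 nM), then sequential 1 h anti-His acceptor and streptavidin donor bead steps; buffer Hepes pH 7.5 with NaCl, Brij 35, DTT, BSA. AlphaScreen signal converted to % inhibition using DMSO (negative) and protein/peptide-free (positive) controls.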

SKBR3 cells = assay: SKBR3 Cell Viability Assay (CellTiter Glo); type: cell-based; conditions: CellTiter Glo luminescence, read-out: MCL-1 CV SKBR3 EC50
Method in brief: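 Viability read as CellTiter Glo luminescence after 72 h of compound exposure at 37° C./5% CO2, using 6,000 SKBR3 cells per well in McCoy 5A with 10% FBS. Percent inhibition scaled between DMSO wells and 10 μM puromycin wells.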

Chain of MCL-1/Bim interaction (recombinant human MCL-1 protein, residues 171-327; biotinylated human Bim peptide, residues 51-76) (Q07820 171-327): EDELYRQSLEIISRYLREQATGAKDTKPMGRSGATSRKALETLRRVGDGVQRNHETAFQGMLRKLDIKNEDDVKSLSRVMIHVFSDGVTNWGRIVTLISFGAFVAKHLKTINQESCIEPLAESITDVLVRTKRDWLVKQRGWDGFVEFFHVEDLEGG

## COc1nn(C)cc1C(=O)N[S@@]1(=O)=NC(=O)c2ccc3c(c2)N(C[C@@H]2CC[C@H]2[C@@H](OC)CC[C@H](OC)[C@H](C)C1)C[C@@]1(CCCc2cc(Cl)ccc21)CO3 [Example 299]
[1]
  IC50: 0.039 nM
SKBR3 cells; Homo sapiens, SK-BR-3, 72 h
  EC50: 59.7 nM

## CO[C@H]1/C=C/C[C@H](C)C[S@@](=O)(NC(=O)N2CC(OC)(c3ncnn3C)C2)=NC(=O)c2ccc3c(c2)N(C[C@@H]2CC[C@H]21)C[C@@]1(CCCc2cc(Cl)ccc21)CO3 [Example 277]
[1]
  IC50: 0.061 nM
SKBR3 cells; Homo sapiens, SK-BR-3, 72 h
  EC50: 60.9 nM

## CO[C@H]1/C=C/C[C@H](C)C[S@@](=O)(NC(=O)N2CCN(C(C)=O)CC2)=NC(=O)c2ccc3c(c2)N(C[C@@H]2CC[C@H]21)C[C@@]1(CCCc2cc(Cl)ccc21)CO3 [Example 247]
[1]
  IC50: 0.042 nM
SKBR3 cells; Homo sapiens, SK-BR-3, 72 h
  EC50: 85 nM

## CO[C@H]1/C=C/CCC[S@@](=O)(NC(=O)CCCC(F)(F)F)=NC(=O)c2ccc3c(c2)N(C[C@@H]2CC[C@H]21)C[C@@]1(CCCc2cc(Cl)ccc21)CO3 [Example 95]
[1]
  IC50: 1.1 nM
SKBR3 cells; Homo sapiens, SK-BR-3, 72 h
  EC50: 1100 nM

## CO[C@H]1/C=C/CCC[S@@](=O)(NC(=O)CC2CC2)=NC(=O)c2ccc3c(c2)N(C[C@@H]2CC[C@H]21)C[C@@]1(CCCc2cc(Cl)ccc21)CO3 [Example 21]
[1]
  IC50: 0.8 nM
SKBR3 cells; Homo sapiens, SK-BR-3, 72 h
  EC50: 1300 nM

## CO[C@H]1/C=C/C[C@H](C)C[S@@](=O)(NC(=O)c2cc(C)cs2)=NC(=O)c2ccc3c(c2)N(C[C@@H]2CC[C@H]21)C[C@@]1(CCCc2cc(Cl)ccc21)CO3 [Example 434]
[1]
  IC50: 0.446 nM
SKBR3 cells; Homo sapiens, SK-BR-3, 72 h
  EC50: 403 nM

## CO[C@H]1/C=C/C[C@H](C)C[S@@](=O)(NC(=O)c2cc3n(c2)CCc2c-3cnn2C)=NC(=O)c2ccc3c(c2)N(C[C@@H]2CC[C@H]21)C[C@@]1(CCCc2cc(Cl)ccc21)CO3 [Example 208]
[1]
  IC50: 0.136 nM
SKBR3 cells; Homo sapiens, SK-BR-3, 72 h
  EC50: 45 nM

## CO[C@H]1/C=C/C[C@H](C)C[S@@](=O)(NC(=O)N[C@@H]2C[C@@H]2OC)=NC(=O)c2ccc3c(c2)N(C[C@@H]2CC[C@H]21)C[C@@]1(CCCc2cc(Cl)ccc21)CO3 [Example 318]
[1]
  IC50: 0.066 nM
SKBR3 cells; Homo sapiens, SK-BR-3, 72 h
  EC50: 74.4 nM

## CO[C@H]1/C=C/CCC[S@@](=O)(NC(=O)CCc2nnc(C)o2)=NC(=O)c2ccc3c(c2)N(C[C@@H]2CC[C@H]21)C[C@@]1(CCCc2cc(Cl)ccc21)CO3 [Example 60]
[1]
  IC50: 0.2 nM
SKBR3 cells; Homo sapiens, SK-BR-3, 72 h
  EC50: 1090 nM

## CO[C@H]1/C=C/CCC[S@@](=O)(NC(=O)c2cc3ccccc3n2C)=NC(=O)c2ccc3c(c2)N(C[C@@H]2CC[C@H]21)C[C@@]1(CCCc2cc(Cl)ccc21)CO3 [Example 98]
[1]
  IC50: 0.3 nM
SKBR3 cells; Homo sapiens, SK-BR-3, 72 h
  EC50: 2190 nM

## CO[C@H]1/C=C/C[C@H](C)C[S@@](=O)(NC(=O)c2cn(C)nc2C(F)F)=NC(=O)c2ccc3c(c2)N(C[C@@H]2CC[C@H]21)C[C@@]1(CCCc2cc(Cl)ccc21)CO3 [Example 448]
[1]
  IC50: 0.117 nM
SKBR3 cells; Homo sapiens, SK-BR-3, 72 h
  EC50: 251 nM

## CO[C@H]1/C=C/C[C@H](C)C[S@@](=O)(NC(=O)N2CCn3cccc3C2)=NC(=O)c2ccc3c(c2)N(C[C@@H]2CC[C@H]21)C[C@@]1(CCCc2cc(Cl)ccc21)CO3 [Example 457]
[1]
  IC50: 0.085 nM
SKBR3 cells; Homo sapiens, SK-BR-3, 72 h
  EC50: 392 nM

## COC[C@@H]1CC[C@H]1NC(=O)N[S@@]1(=O)=NC(=O)c2ccc3c(c2)N(C[C@@H]2CC[C@H]2[C@@H](OC)/C=C/C[C@H](C)C1)C[C@@]1(CCCc2cc(Cl)ccc21)CO3 [Example 307]
[1]
  IC50: 0.12 nM
SKBR3 cells; Homo sapiens, SK-BR-3, 72 h
  EC50: 96.8 nM

## CO[C@H]1/C=C/C[C@H](C)C[S@@](=O)(NC(=O)Nc2ccccn2)=NC(=O)c2ccc3c(c2)N(C[C@@H]2CC[C@H]21)C[C@@]1(CCCc2cc(Cl)ccc21)CO3 [Example 441]
[1]
  IC50: 0.223 nM
SKBR3 cells; Homo sapiens, SK-BR-3, 72 h
  EC50: 374 nM

## CO[C@H]1/C=C/CCC[S@@](=O)(NC(=O)CCc2ccnn2CC(F)(F)F)=NC(=O)c2ccc3c(c2)N(C[C@@H]2CC[C@H]21)C[C@@]1(CCCc2cc(Cl)ccc21)CO3 [Example 92]
[1]
  IC50: 0.1 nM
SKBR3 cells; Homo sapiens, SK-BR-3, 72 h
  EC50: 245 nM

## COc1nn(C)cc1C(=O)N[S@@]1(=O)=NC(=O)c2ccc3c(c2)N(C[C@@H]2CC[C@H]2[C@@H](OC(C)=O)/C=C/C[C@H](C)[C@H]1C)C[C@@]1(CCCc2cc(Cl)ccc21)CO3 [Example 249]
[1]
  IC50: 0.14 nM
SKBR3 cells; Homo sapiens, SK-BR-3, 72 h
  EC50: 222 nM

## CO[C@H]1/C=C/C[C@H](C)C[S@@](=O)(NC(=O)c2cnn(C)c2)=NC(=O)c2ccc3c(c2)N(C[C@@H]2CC[C@H]21)C[C@@]1(CCCc2cc(Cl)ccc21)CO3 [Example 148]
[1]
  IC50: 0.043 nM
SKBR3 cells; Homo sapiens, SK-BR-3, 72 h
  EC50: 37.2 nM

## CO[C@H]1/C=C/C[C@H](C)[C@@H](C)[S@@](=O)(NC(=O)c2cc3n(c2)C[C@H](C)OC3)=NC(=O)c2ccc3c(c2)N(C[C@@H]2CC[C@H]21)C[C@@]1(CCCc2cc(Cl)ccc21)CO3 [Example 218]
[1]
  IC50: 0.345 nM
SKBR3 cells; Homo sapiens, SK-BR-3, 72 h
  EC50: 85.5 nM

## CO[C@H]1/C=C/C[C@H](C)C[S@@](=O)(NC(=O)N[C@@H]2C[C@H]2c2ccnn2C)=NC(=O)c2ccc3c(c2)N(C[C@@H]2CC[C@H]21)C[C@@]1(CCCc2cc(Cl)ccc21)CO3 [Example 182]
[1]
  IC50: 0.144 nM
SKBR3 cells; Homo sapiens, SK-BR-3, 72 h
  EC50: 136 nM

## CO[C@H]1/C=C/C[C@H](C)C[S@@](=O)(NC(=O)C2CC(C)(O)C2)=NC(=O)c2ccc3c(c2)N(C[C@@H]2CC[C@H]21)C[C@@]1(CCCc2cc(Cl)ccc21)CO3 (stereo partly shown) [Example 140]
[1]
  IC50: 0.043 nM
SKBR3 cells; Homo sapiens, SK-BR-3, 72 h
  EC50: 38.6 nM

## CO[C@H]1/C=C/CCC[S@@](=O)(NC(=O)CC(C)C)=NC(=O)c2ccc3c(c2)N(C[C@@H]2CC[C@H]21)C[C@@]1(CCCc2cc(Cl)ccc21)CO3 [Example 26]
[1]
  IC50: 1.8 nM
SKBR3 cells; Homo sapiens, SK-BR-3, 72 h
  EC50: 1690 nM

## CO[C@H]1/C=C/C[C@H](C)C[S@@](=O)(NC(=O)N[C@H]2C[C@](C)(OC)C2)=NC(=O)c2ccc3c(c2)N(C[C@@H]2CC[C@H]21)C[C@@]1(CCCc2cc(Cl)ccc21)CO3 [Example 192]
[1]
  IC50: 0.054 nM
SKBR3 cells; Homo sapiens, SK-BR-3, 72 h
  EC50: 39.7 nM

## COc1nn(C)cc1C(=O)N[S@@]1(=O)=NC(=O)c2ccc3c(c2)N(C[C@@H]2CC[C@H]2[C@@H](OC(=O)N(C)C)/C=C/C[C@H](C)C1)C[C@@]1(CCCc2cc(Cl)ccc21)CO3 [Example 404]
[1]
  IC50: 0.092 nM
SKBR3 cells; Homo sapiens, SK-BR-3, 72 h
  EC50: 197 nM

## CO[C@H]1/C=C/CCC[S@@](=O)(NC(=O)Cc2ccnn2C)=NC(=O)c2ccc3c(c2)N(C[C@@H]2CC[C@H]21)C[C@@]1(CCCc2cc(Cl)ccc21)CO3 [Example 29]
[1]
  IC50: 0.6 nM
SKBR3 cells; Homo sapiens, SK-BR-3, 72 h
  EC50: 1840 nM

## CO[C@H]1/C=C/CCC[S@@](=O)(NC(=O)CC(F)(F)F)=NC(=O)c2ccc3c(c2)N(C[C@@H]2CC[C@H]21)C[C@@]1(CCCc2cc(Cl)ccc21)CO3 [Example 23]
[1]
  IC50: 0.8 nM
SKBR3 cells; Homo sapiens, SK-BR-3, 72 h
  EC50: 1450 nM

## CO[C@H]1/C=C/C[C@H](C)C[S@@](=O)(NC(=O)N2CC(OC(=O)N3CCCCC3)C2)=NC(=O)c2ccc3c(c2)N(C[C@@H]2CC[C@H]21)C[C@@]1(CCCc2cc(Cl)ccc21)CO3 [Example 385]
[1]
  IC50: 0.128 nM
SKBR3 cells; Homo sapiens, SK-BR-3, 72 h
  EC50: 222 nM

## CCC(=O)N[S@]1(=O)=NC(=O)c2ccc3c(c2)N(C[C@@H]2CC[C@H]2[C@@H](OC)/C=C/CC[C@H]1CC)C[C@@]1(CCCc2cc(Cl)ccc21)CO3 [Example 64]
[1]
  IC50: 5.2 nM
SKBR3 cells; 72 hours
  EC50: 5830 nM

## CO[C@H]1/C=C/CCC[S@@](=O)(NC(=O)CCC2CCCC2)=NC(=O)c2ccc3c(c2)N(C[C@@H]2CC[C@H]21)C[C@@]1(CCCc2cc(Cl)ccc21)CO3 [Example 82]
[1]
  IC50: 1.1 nM
SKBR3 cells; Homo sapiens, SK-BR-3, 72 h
  EC50: 2320 nM

## COC1CN(C2CN(C(=O)N[S@@]3(=O)=NC(=O)c4ccc5c(c4)N(C[C@@H]4CC[C@H]4[C@@H](OC)/C=C/C[C@H](C)C3)C[C@@]3(CCCc4cc(Cl)ccc43)CO5)C2)C1 [Example 286]
[1]
  IC50: 0.037 nM
SKBR3 cells; Homo sapiens, SK-BR-3, 72 h
  EC50: 65.1 nM

Source: patent US10703733B2, “MCL-1 inhibitors” (Gilead Sciences, Inc., priority 2018, dated 2020)
